Data from EP0372603A2, “Antibacterial oral composition” (Colgate-Palmolive Company, priority 1988, dated 1990).

Assays:
[1] = Gingivitis/plaque/stain evaluation in monkeys sprayed with rinse once daily for 6 weeks; assay type: in vivo, squirrel monkeys; parameters: key to Final Gingival Index: 0 = clinically normal gingiva to 4 = obvious redness with bleeding; Initial Stain Index / Final Stain Index: scale not given here; conditions: for Final Gingival Index: once daily spray 30 seconds; for Initial Gingival Index: baseline before treatment, scale 0-4; for Initial Plaque Index: modified Quigley-Hein index
Method: Adult squirrel monkeys are prepared for a gingivitis/plaque/stain evaluation including thorough prophylaxis. 36 surfaces (maxillary and mandibular; mesial, buccal and distal) are initially evaluated for plaque by a modified Quigley-Hein index and gingival inflation by the following scale: 0 - clinically normal; pink, form, knife-like gingival margin, triangular interdental papilla; 1 - change in the form of gingiva; gingival margin may be slightlyenlarged, no longer knife-like and firm, no color change; 2 - slight color change of marginal gingiva of interdental papilla, discrete areas of redness at most cornal surfaces of the free gingiva; 3- obvious color change in marginal gingiva or interdental papilla, no bleeding on probing; 4 - obvious color change; redness obvious; in addition, bleeding on probing or spontaneous bleeding.
The squirrel monkeys are then divided into 3 groups of four and each is treated in a double blind manner once daily for 6 weeks. All dentitions are sprayed for 30 seconds from polyethylene bottles containing rinse solution.
Initial and 6 week evaluations for three studies for plaque formation and gingival inflamation and 6 week evaluations for stain (indicate general protocol) follow, with stain TABLE 4

[2] = In vitro stain retention on hydroxyapatite (bovine serum albumin/acetaldehyde browning model); conditions: 0.12, 0.25 and 1.0% of aminoguanidine gluconate with 0.12% CHX
Method: The following in vitro method correlates with and simulates the reaction whereby hydroxyapatite tooth mineral material is stained brown:
2.0 g hydroxyapatite (HAP), 10 ml of 25% Bovine Serum Albumin in 0.1M phosphate buffer (pH 7.0), 2.5 ml of 0.1M phosphate buffer containing mono-basic and di-basic sodium orthophosphate (pH 7), 25.0 ml of a test sample and 12.5 ml of 30% buffered acetaldehyde (pH 7) are mixed for 24 hrs. at 37 °C. The HAP is filtered and dried at 37 °C. The color retained on the HAP powder is qualified with a Gardner Color Difference Meter.

[3] = tested on: in vitro plaque which is formed by Actinomyces viscosus and strep mutans on extracted human teeth; experiment: Antiplaque effect on in vitro plaque on extracted human teeth (visual score and erythrosine dye extraction); assay type: cell-based
Method: The antiplaque effect of chlorhexidine in the presence of aminoguanidine is determined by rinsing in vitro plaque which is formed by Actinomyces viscosus and strep mutans on extracted human teeth for 30 seconds once per day for three days with the full strength rinses below. The plaque growth is induced on teeth by daily transferring the teeth to an inoculated fresh medium (tryptocase soy broth). The amount of plaque is scored visually as well as after disclosing with erythrosine dye. The dye is then extracted with ethanol. The amount of the dye adsorbed is directly proportional to the amount of the plaque on teeth. The dye concentration is measured spectrophotometrically at wavelength 533nm.

[4] = tested on: Actinomyces viscosus cells; experiment: Antibacterial effect: full strength rinses exposed to cells for 60 seconds, CFU count; assay type: cell-based
Method: The antibacterial effect of chlorhexidine in the presence of aminoguanidine is determined by exposing the following full strength rinses to Actinomyces viscosus cells for 60 seconds.

[H]/N=C(\N/C(=N/[H])NCCCCCCNC(=N)NC(=N)Nc1ccc(Cl)cc1)Nc1ccc(Cl)cc1 [CHX, chlorhexidine gluconate]
Final Plaque Index ([1]; Study A, after 6 weeks): 1.24
Final Gingival Index ([1]; Study A, after 6 weeks): 0.49
Initial Gingival Index ([1]; Study A): 0.43
Initial Plaque Index ([1]; Study A, baseline): 0.55
Final Plaque Index ([1]; Study B, after 6 weeks): 0.47
Final Stain Index ([1]; Study B, after 6 weeks): 0.62
Final Gingival Index ([1]; Study B, after 6 weeks): 0.47
Initial Stain Index ([1]; Study B, baseline): 0.01
Initial Gingival Index ([1]; Study B): 0.54
Initial Plaque Index ([1]; Study B, baseline): 0.15
Final Plaque Index ([1]; Study C, after 6 weeks): 0.83
Final Gingival Index ([1]; Study C, after 6 weeks): 0.63
Initial Gingival Index ([1]; Study C): 0.56
Initial Plaque Index ([1]; Study C, baseline): 0.53

N=C(N)NN [Aminoguanidine, Hydrazine Carboximidamide (aminoguanidine)]
chlorhexidine induced stain (in words) [2]: reduces the chlorhexidine induced stain at least to about the level of the placebo
antiplaque activity (in words) ([3]; 0.25% Aminoguanidine alone): no antiplaque activity
effect on antiplaque activity of chlorhexidine (in words) ([3]; 0.25% Aminoguanidine with CHX): does not compromise the antiplaque activity of chlorhexidine
antibacterial effect (in words) ([4]; 0.25% Aminoguanidine alone): no antibacterial effect
effect on antibacterial activity of chlorhexidine (in words) ([4]; 0.25% Aminoguanidine with CHX): does not compromise antibacterial activity of chlorhexidine
